A value given as a limit tells only on which side of the number the result lay.

Data set [1] deals with T1, recombinant Btk kinase enzyme (Homo sapiens, UniProt Q06187).
T1 construct: purchased SignalChem B10-10H
The data set can be described thus: In vitro inhibition of Btk kinase activity (ADP-Glo). It counts as biochemical. The conditions noted are these: Table 8; ADP-Glo; read-out: IC50 kinase BTK. The method, then:
To assess Btk kinase activity described herein, SignalChem kinase system was used. Btk kinase activity was determined in the reaction between recombinant Btk kinase enzyme (SignalChem #B10-10H) and Poly (4:1 Glu, Tyr) peptide substrate in the presence of the inhibitor.
Staurosporine (Abcam Biochemicals, ab146588) was used as a reference inhibitor and 0.1% DMSO in the reaction buffer—as a negative control. The solution of 0.5 mg/mL peptide substrate and 50 &M ATP in the same buffer were added; the solution was incubated for 180 minutes at 37° C. To detect the amount of ATP taken up during the kinase reaction, the equivalent amount of ADP (from the ADP Glo Detection Kit (Promega, #V9101)) was used according to the protocol. The reaction mixture was equilibrated to room temperature. 25 µL of ADP-Glo Reagent were added into each well; the plate was incubated for 40 minutes. 50 μL of Kinase Detection Reagent were added; the plate was incubated for 30 minutes. The luminescence was measured with multimode plate reader (Tecan Infinite M200Pro, Switzerland). IC50 values were calculated using Magellan 7.2 software (Tecan, Switzerland) approximating experimental points by four-parameter logistic model with the optimization by Levenberg-Marquardt.
A general note: In ADP-Glo the light output rises with the ADP produced.

For data set [2], the system named is DOHH2 (follicular lymphoma). The data set is described as follows: Antiproliferative activity, DOHH2 cells (Alamar Blue). It counts as cell-based. The conditions noted are these: Homo sapiens, DOHH-2, Table 10, 72 h, average of several tests. The gist of the method: (§1)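 A 72 h growth-inhibition assay using Alamar Blue fluorescence as the viability readout, with IC50 taken from a four-parameter logistic curve.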
On the technique in general: Resazurin is reduced to fluorescent resorufin, in cell work by metabolically active cells.

Data set [3] concerns Mino (mantle cell lymphoma). The data set can be described thus: Antiproliferative activity, Mino cells (Alamar Blue). It counts as cell-based. The following applies: Homo sapiens, Table 10, 72 h, average of several tests. The gist of the method:
as §1

Data set [4] is described as follows: Stability in human blood plasma. The conditions noted are these: 10 μM in pooled human blood plasma, incubated 4 hours at 37° C.
Data set [5] can be described thus: Permeability through the monolayer of Caco-2 cells. The format is in vitro ADME. The following applies: human; for Papp A→B at 2 h, 10 μM / Papp B→A at 2 h, 10 μM: 2 h at 37° C.; for efflux ratio at 2 h, 10 μM: read-out: efflux (Papp B-A/Papp A-B). The gist of the method: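 Bidirectional transport measured over 7200 s with 10 μM compound, using an apical buffer at pH 6.5 and a basolateral Hanks/HEPES/glucose buffer at pH 7.4 containing 1% BSA. Monolayers were 21-day Caco-2 cultures verified with Lucifer Yellow. Chamber concentrations quantified chromatographically to derive Papp in both directions and their B-A/A-B efflux ratio.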
For orientation: Caco-2 monolayers are a common model of the intestinal barrier.

Data set [6] in a line: General cytotoxicity on HepG2 cells (CC50; therapeutic index CC50 HepG2/IC50 Mino). It counts as cell-based. The conditions noted are these: human, HepG2 cells (hepatocellular carcinoma); Table 10; 72 hours, Alamar Blue; average of several tests. The gist of the method: (§2)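 Alamar Blue viability after 72 h exposure to compounds (final 200 μM–4 μM) gave CC50; HepG2 plated 2*10^4/well in DMEM 24 h beforehand. Therapeutic index expressed as ratio of HepG2 CC50 to Mino antiproliferative IC50.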

In data set [7] the test system is HepG2 cells (hepatocellular carcinoma). Described as above. It counts as cell-based. The conditions noted are these: Table 10; therapeutic index. The gist of the method:
as §2

The subject of data set [8] is Z-138 (mantle cell lymphoma). The data set is described as follows: Antiproliferative activity, Z-138 cells (Alamar Blue). The following applies: Homo sapiens, Table 10, 72 h, average of several tests. The format is cell-based. The gist of the method:
as §1

The nature of data set [9]: Chemical stability in artificial gastric fluid (SGF without enzymes). The conditions noted are these: 10 μM in SGF without enzymes, pH=1.4, 37° C.
Experimental: The initial candidate solution (10 mM in DMSO) was diluted with the working solution of SGF to the concentration of 10 μm (test solution). The test solution was incubated in a dry block heater at 37° C. We determined peak areas of the compounds corresponding to the start of the test (before incubating) and the end of the test (after incubating in a dry block heater at 37° C.) by HPLC using Agilent1200 chromatograph (Agilent, USA). We used gradient elution (1 mL/min flow rate). We determined amount of substance in the sample in % after incubation.
We evaluated the stability of the compounds.

T1 sequence (Q06187 whole entry): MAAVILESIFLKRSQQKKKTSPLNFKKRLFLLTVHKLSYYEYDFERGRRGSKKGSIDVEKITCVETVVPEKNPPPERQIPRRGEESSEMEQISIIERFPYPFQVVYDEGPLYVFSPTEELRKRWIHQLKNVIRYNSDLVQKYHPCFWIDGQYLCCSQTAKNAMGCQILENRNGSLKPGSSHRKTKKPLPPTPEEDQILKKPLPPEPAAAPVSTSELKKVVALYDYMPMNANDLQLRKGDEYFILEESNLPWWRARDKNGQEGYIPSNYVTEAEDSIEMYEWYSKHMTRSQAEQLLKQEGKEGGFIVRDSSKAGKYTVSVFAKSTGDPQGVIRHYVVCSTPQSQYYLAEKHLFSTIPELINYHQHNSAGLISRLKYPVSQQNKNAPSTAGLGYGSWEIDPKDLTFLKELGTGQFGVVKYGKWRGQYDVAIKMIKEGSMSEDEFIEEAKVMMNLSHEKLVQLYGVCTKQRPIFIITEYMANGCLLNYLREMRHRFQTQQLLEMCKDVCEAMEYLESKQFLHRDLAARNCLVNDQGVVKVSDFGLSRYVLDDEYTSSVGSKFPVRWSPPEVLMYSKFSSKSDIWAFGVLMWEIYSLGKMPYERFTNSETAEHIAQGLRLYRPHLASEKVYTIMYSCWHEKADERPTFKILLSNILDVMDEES

On to `C=CC(=O)N1CCC[C@@H](n2nc(-c3ccc(Oc4ccncc4C(N)=O)cc3)c3cncc(Cl)c32)C1` [BCD-BTK-203, (R)-4-(4-(1-(1-acryloylpiperidin-3-yl)-7-chloro-1H-pyrazolo[4,3-c]pyridin-3-yl)phenoxy)nicotinamide], for which the IC50 was determined as 1.1 µM in data set [1], 14 µM in data set [2], 13.6 µM in data set [3] and 16 µM in [8]. The “Amount of substance in the sample, % (stability in human blood plasma)” value in [4] came out at 84.7%. The compound further had a Papp A→B at 2 h, 10 μM in data set [5] of 9.31 ×10⁻⁶ cm/s. The compound also gave a Papp B→A at 2 h, 10 μM in [5] of 8.4 ×10⁻⁶ cm/s. Besides, the efflux ratio at 2 h, 10 μM in data set [5] is 0.9. This compound also gave a CC50 at 72 h in data set [6] of 61.9 µM. Further, in [7], the “CC50 (HepG2)/IC50 (Mino)” value is on record as 4.55.
For `C=CC(=O)N1CCC[C@@H](n2nc(-c3ccc(C(=O)Nc4ncccc4F)cc3)c3cncc(C#N)c32)C1` [BCD-BTK-235, 4-{7-cyano-1-[(3R)-1-(prop-2-enoyl)piperidin-3-yl]-1H-pyrazolo[4,3-c]pyridin-3-yl}-N-(3-fluoropyridin-2-yl)benzamide], the half-inhibitory concentration (IC50) in [1] is 0.0139 µM; in [2], above 100 µM; in data set [3], 18.6 µM; in data set [8], above 100 µM. Further, the “Amount of substance in the sample in % (chemical stability)” value (“Amount of substance in the sample in %” below) in data set [9] was 100%. This compound displayed a CC50 at 72 h in data set [6] above 100 µM. Further, in data set [7], the “CC50 (HepG2)/IC50 (Mino)” value was above 5.37.
Turning to `C=CC(=O)N1CCC[C@@H](n2nc(-c3ccc(C(=O)Nc4ccc(F)cn4)cc3)c3c(N)ncc(Cl)c32)C1` [BCD-BTK-237, 4-{4-amino-7-chloro-1-[(3R)-1-(prop-2-enoyl)piperidin-3-yl]-1H-pyrazolo[4,3-c]pyridin-3-yl}-N-(5-fluoropyridin-2-yl)benzamide], the IC50 in [1] is 0.0126 µM; in data set [2], 3.25 µM; in data set [3] it was 6.25 µM; in [8] it was 6.99 µM. Also, in data set [5], the Papp A→B at 2 h, 10 μM is 6.9 ×10⁻⁶ cm/s. This compound also had a Papp B→A at 2 h, 10 μM in [5] of 3.5 ×10⁻⁶ cm/s. For the same compound, the efflux ratio at 2 h, 10 μM in [5] was 0.5. Moreover, half-maximal cytotoxicity in [6] (CC50 at 72 h) was put at 28.4 µM. For the same compound, the “CC50 (HepG2)/IC50 (Mino)” value in data set [7] is recorded as 4.54.
Regarding `C=CC(=O)N1CCC[C@@H](n2nc(-c3ccc(C(=O)Nc4ccccn4)cc3)c3c(N)ncc(Cl)c32)C1` [BCD-BTK-238, 4-{4-amino-7-chloro-1-[(3R)-1-(prop-2-enoyl)piperidin-3-yl]-1H-pyrazolo[4,3-c]pyridin-3-yl}-N-(pyridin-2-yl)benzamide], the IC50 came to 0.0189 µM in data set [1], 4.05 µM in data set [2], 10.6 µM in [3] and 9.44 µM in data set [8]. In data set [5], this compound came in with an apparent permeability from apical to basolateral (Papp A→B) at 2 h, 10 μM of 6.75 ×10⁻⁶ cm/s. In data set [5], this compound registered a Papp B→A at 2 h, 10 μM of 4.78 ×10⁻⁶ cm/s. For the same compound, in data set [5], the efflux ratio at 2 h, 10 μM is 0.71. For the same compound, the “Amount of substance in the sample in %” value in data set [9] was 100%. Moreover, in data set [6], the midpoint of cytotoxicity, the CC50 at 72 h, lay at 24.8 µM. For the same compound, in data set [7], the “CC50 (HepG2)/IC50 (Mino)” value is listed as 2.34.
With `C=CC(=O)N1CC[C@@H](n2nc(-c3ccc(Oc4ccncc4)cc3)c3cncc(Cl)c32)C1` [BCD-BTK-272, (R)-1-(3-(7-chloro-3-(4-(pyridin-4-yloxy)phenyl)-1H-pyrazolo[4,3-c]pyridin-1-yl)pyrrolidin-1-yl)prop-2-en-1-one], the IC50 in data set [1] was found to be 0.0548 µM; in data set [2], 5.23 µM; in [3], 6.83 µM; in data set [8], 14.9 µM. In data set [5], this compound yielded a Papp A→B at 2 h, 10 μM of 6.3 ×10⁻⁶ cm/s. This compound also displayed a Papp B→A at 2 h, 10 μM in data set [5] of 1.1 ×10⁻⁶ cm/s. Also, in data set [5], the efflux ratio at 2 h, 10 μM stood at 0.18. For the same compound, the “Amount of substance in the sample in %” value in data set [9] came out at 100%. In data set [6], this compound yielded a CC50 at 72 h of 17.6 µM. Moreover, the “CC50 (HepG2)/IC50 (Mino)” value in [7] is 2.57.

By IC50 is commonly meant the point on the concentration scale where inhibition reaches its midpoint. As usually defined, the Papp A→B is the apparent permeability from the apical to the basolateral side of a cell layer. Low values mean slow passage, high ones fast passage. As usually defined, the Papp B→A is the apparent permeability from the basolateral to the apical side of a cell layer. Broadly, the CC50 is the concentration giving 50% cytotoxicity. A low value points to harm at low concentration.

Source of the values: patent US20190352276A1, “INHIBITORS OF BRUTON'S TYROSINE KINASE” (Joint Stock Company "Biocad", priority 2016, published 2019).
